Measurements from paper PMC10119282, “Molecular characterization of AIFM2/FSP1 inhibition by iFSP1-like molecules” (Cell Death & Disease, 2023).

Columns and labels:
[1] = tested on: Pfa1 Gpx4−/− overexpressing hFSP1 Y296A/F360A; test: Cell viability (Alamar blue), hFSP1 Y296A/F360A; type: cell-based, murine
Description: (§1) Cell Lines. 4-hydroxytamoxifen (TAM)-inducible Gpx4^−/− murine immortalized fibroblasts (Pfa1) were reported previously. These cells harbor two loxP-flanked Gpx4 alleles and stably express TAM inducible Cre recombinase allowing the genetic deletion of Gpx4 at will. For all experiments using Gpx4^−/− the well were treated with 4-hydroxitamoxifen (TAM) 1 µM. All cells were cultured with were cultured in DMEM-high glucose (4.5 g glucose/L) with 10% fetal bovine serum (FBS), Glutamax, and 1% penicillin/streptomycin (Gibco, Thermo Fischer) at 37 °C with 5% CO2 and verified to be negative for mycoplasma.
(§2) Cell viability assays. Alamar Blue method: Cells were seeded on 96-well plates (2000 cells per well) and treated with the compounds RSL3, iFSP1 and (liproxstatin-1) after plating. Cell viability was assessed 48 h (unless stated otherwise) after treatment using Alamar Blue as an indicator of viable cells. Alamar blue solution was made by dissolving of 1 g resazurin sodium salt (Thermo Fischer) in 200 mL sterile PBS and sterile filtrated through a 0.22 µm filter. Stock solutions were stored at 4 °C. The working solution was made freshly by adding 200 µL of the stock solution to 25 mL growth media. After 2–4 h incubation time, viability was estimated by measuring the fluorescence using a 540/35 excitation filter and a 590/20 emission on a Spark® microplate reader (Tecan, Zürich, Switzerland).

[2] = tested on: Pfa1 Gpx4−/− overexpressing mFSP1 K319Q; test: Cell viability (Alamar blue), mFSP1 K319Q; type: cell-based, murine; details: Mus musculus, x axis iFSP1 (μM), read-out: IC50 (dose-response toxicity)
Description: as §1, §2

[3] = biological target: T1, hFSP1 WT (Homo sapiens, UniProt Q9BRQ8); test: Competition MST against pre-formed complex of hFSP1 WT and FSP1-Tracer; type: binding
T1 construct: HisSUMO (cleaved yes); made in house; host or cells: E. coli BL21
T1 sequence (Q9BRQ8 1-373): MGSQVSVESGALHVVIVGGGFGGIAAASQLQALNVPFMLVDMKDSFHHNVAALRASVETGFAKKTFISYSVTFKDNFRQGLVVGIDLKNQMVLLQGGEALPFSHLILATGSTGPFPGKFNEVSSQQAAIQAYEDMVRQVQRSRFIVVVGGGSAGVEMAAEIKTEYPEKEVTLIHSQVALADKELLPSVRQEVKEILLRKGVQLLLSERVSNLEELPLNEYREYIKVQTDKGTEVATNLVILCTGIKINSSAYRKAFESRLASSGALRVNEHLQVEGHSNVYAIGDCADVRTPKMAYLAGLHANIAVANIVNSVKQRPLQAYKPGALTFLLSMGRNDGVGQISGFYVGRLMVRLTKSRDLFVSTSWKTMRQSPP
Description: FSP1 (human isoform 1, UniProt Q9BRQ8-1) WT (hFSP1 WT) and F360L (hFSP1 F360L) were expressed in E.coli BL21 as HisSUMO fusion protein. Cells were grown in lysogeny broth medium at 18 °C and induced with 0.5 mM isopropyl-β-thiogalactoside at a cell density A600 of 0.6. Cells were collected after overnight expression by centrifugation, resuspended in lysis buffer ([…], 50 mM Tris-HCl pH 8, 1 mM TCEP, 20 mM imidazole, protease inhibitor, DNase) and lysed by sonication. Cell debris was removed by centrifugation (30,000 × g) at 4 °C for 30 min, after which an IMAC purification was performed. Briefly, a HisTrap crude FF (5 mL) column was equilibrated to lysis buffer, lysates were loaded via the sample pump and the column was then washed with 50 mL lysis buffer. During the elution with a gradient to 100% IMAC elution buffer (300 mM NaCl, 50 mM Tris-HCl pH 8, 1 mM TCEP, 400 mM imidazole) over 100 mL, 5 mL fractions were collected. The pooled fractions were dialysed overnight in the presence of SenP2 SUMO protease at a ratio of 40:1 FSP1:SenP2. Afterwards, a reverse IMAC purification was performed on a HisTrap crude FF (5 mL) column. IMAC eluates were analysed by SDS PAGE and concentrated to 15 mL (hFSP1 WT) and 5 mL (hFSP1 F360L), respectively. […] Pure fractions were pooled (C12—D11 for hFSP1 WT and C7—D4 for hFSP1 F360L), analysed by SDS-PAGE (Supplementary Fig. 4) and concentrated to 5.8 mL at 285.9 µM (hFSP1 WT) and 1.2 mL at 269.5 µM (FSP1 F360L), flash frozen in liquid N2 and stored at −80 °C.
An MST buffer consisting of 1× phosphate-buffered saline (PBS; 137 mM NaCl, 2.7 mM KCl, 10 mM Na2HPO4, 1.8 mM KH2PO4, pH 7.4) with 2 mM reduced L-Glutathione (GSH, Sigma Aldrich, product number G4251) and 0.05% (v/v) Tween 20 (ITW Reagents, molecular biology grade, product number A4974) was used for all MST measurements. […] KD values were determined by applying a Hill-fit to a plot of Fnorm vs. hFSP1 WT/F360L concentration. […]

[4] = tested on: Pfa1 Gpx4−/− overexpressing hFSP1 F360A; test: Cell viability (Alamar blue), hFSP1 F360A; type: cell-based, murine
Description: as §1, §2

[5] = Mus musculus, x axis iFSP1 (μM), read-out: IC50 (dose-response toxicity)

SMILES: Cc1ccc(-c2c(C#N)c(N)n3c(nc4ccccc43)c2C#N)cc1 [iFSP1]
- inhibitor activity (ferroptosis induction) [1]: abolishes the inhibitor activity
- IC50 [1, 5]: 5.62 µM
- IC50 [2]: 5.62 µM
- Ki ([3]; hFSP1 WT 5 µM and FSP1-Tracer 5 nM pre-formed complex): 0.0616 µM
- higher binding affinity to hFSP1 than NADH ([3]; iFSP1 Ki versus NADH Ki): 7.4 fold
- inhibitor activity (ferroptosis induction) [4]: abolishes the inhibitor activity
- IC50 [4, 5]: 5.62 µM
